Experimental data taken from PubChem BioAssay (NCI).
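Cells were grown in 96-well plates and exposed to each compound for 48 hours at five concentrations; endpoints were interpolated linearly between bracketing concentrations, or set to the highest concentration if not reached. Definition used: TGI = concentration required for complete inhibition of growth.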 Where a SMILES comes first, the peptide text is derived from it. The star is where a group is joined. Cbz = O=C(OCc1ccccc1)*

What was measured:
Experiment in all cases: inhibition of tumour cell growth, NCI panel, 48 h
[1] = system: RXF 393 renal
[2] = system: SF-268 CNS
[3] = system: EKVX NSCLC
[4] = system: NCI-H522 lung
[5] = system: U251 CNS
[6] = system: SK-MEL-5 melanoma
[7] = system: RPMI-8226 leukemia
[8] = system: MDA-MB-231 breast
[9] = system: IGROV1 ovarian
[10] = system: SW-620 colon
[11] = system: MOLT-4 leukemia
[12] = system: MCF7 breast
[13] = system: TK-10 renal
[14] = system: SF-295 CNS
[15] = system: SR leukemia
[16] = system: MDA-MB-435
[17] = system: K-562 leukemia
[18] = system: NCI/ADR-RES ovarian
[19] = system: 786-0 renal
[20] = system: OVCAR-3 ovarian

SMILES | TGI [1] [µM] | TGI [2] [µM] | TGI [3] [µM] | TGI [4] [µM] | TGI [5] [µM] | TGI [6] [µM] | TGI [7] [µM] | TGI [8] [µM] | TGI [9] [µM] | TGI [10] [µM] | TGI [11] [µM] | TGI [12] [µM] | TGI [13] [µM] | TGI [14] [µM] | TGI [15] [µM] | TGI [16] [µM] | TGI [17] [µM] | TGI [18] [µM] | TGI [19] [µM] | TGI [20] [µM]
Cn1c2c(c3ccccc31)CCN1C(=O)CN(C(=O)C3CCCCC3)CC21 (stereo not drawn) | > 100 | > 100 | > 100 | > 100 | > 100 | > 100 | > 100 | > 100 | > 100 | > 100 | > 100 | > 100 | > 100 | > 100 | > 100 | > 100 | > 100 | > 100 | > 100 | > 100
CCOC(=O)c1nc2cc(F)c(N3CCOCC3)cc2[nH]c1=O | > 100 | > 100 | > 100 | > 100 | > 100 | > 100 | > 100 | > 100 | > 100 | > 100 | > 100 | > 100 | > 100 | > 100 | > 100 | > 100 | > 100 | > 100 | > 100 | > 100
CC(NC(=O)C(NC(=O)OCc1ccccc1)C(C)C)C(=O)NCC(=O)O (stereo not drawn) (Cbz-Val-Ala-Gly-OH; configuration not given here) | > 100 | > 100 | > 100 | > 100 | > 100 | > 100 | > 100 | > 100 | > 100 | > 100 | > 100 | > 100 | > 100 | > 100 | > 100 | > 100 | > 100 | > 100 | > 100 | > 100
c1ccc2c(c1)SCCC2NC1=NCCO1 (stereo not drawn) | > 100 | > 100 | > 100 | > 100 | > 100 | > 100 | > 100 | > 100 | > 100 | > 100 | > 100 | > 100 | > 100 | > 100 | > 100 | > 100 | > 100 | > 100 | > 100 | > 100
NCC(=O)Nc1ccc(S(=O)(=O)O)c2cc(S(=O)(=O)O)cc(S(=O)(=O)O)c12 | > 100 | > 100 | > 100 | > 100 | > 100 | > 100 | > 100 | > 100 | > 100 | > 100 | > 100 | > 100 | > 100 | > 100 | > 100 | > 100 | > 100 | > 100 | > 100 | > 100
CC(=O)OCC1OC(n2c(C)cc(C)c(C#N)c2=S)C(OC(C)=O)C(OC(C)=O)C1OC(C)=O (stereo not drawn) | > 100 | > 100 |  | > 100 | > 100 | > 100 | > 100 | > 100 | > 100 |  | > 100 | > 100 | > 100 | > 100 | > 100 | > 100 | > 100 | > 100 | > 100 | > 100
COc1ccc(N=NC(=O)NC(CC(C)C)C(=O)NC(C)C(=O)O)cc1 (stereo not drawn) | > 100 | > 100 | > 100 | > 100 | > 100 | > 100 | > 100 | > 100 | > 100 | > 100 | > 100 | > 100 | > 100 | > 100 | > 100 | > 100 | > 38.4 | > 100 | > 100 | > 100
CC1C=CN(N(C)C)C2=C1C(=O)c1cnccc1C2=O (stereo not drawn) | 1.46 | 5.21 | 2.07 | 0.55 | 2.49 | 0.894 | 2.65 | 2.12 | 1.07 | 1.83 | 4.06 | 0.986 | 1.44 | 2.18 | 0.196 | 0.43 |  | 4.09 | 0.538 | 2.37
COc1ccc(/C=C2\c3cc(OC)c(OC)cc3CCN2C(=O)c2ccccc2)cc1OC | > 100 | > 100 | > 100 | 45.4 | > 100 | 45 | > 100 | > 100 | > 100 | > 100 | 80.6 | > 100 | > 100 | > 100 | > 100 | 49 | > 100 | 76.4 | > 100 | > 100
[N-]=[N+]=NCc1nc(N)c2c3c(sc2n1)CCCC3 | 19.3 | 6.23 | 4.95 |  | > 25.3 | 3.41 | > 24.9 | 80.6 | 2.92 | > 100 | > 100 | 16.3 | 26.5 | 27.9 | > 100 | 32 | > 40.6 | > 22.2 | 1.55 | 11.8
COC(=O)C1=C(O)c2ccc(Cl)cc2S(=O)(=O)N1C | > 100 | > 100 | > 100 | > 100 | > 100 | > 100 | > 100 | > 100 | > 100 | > 100 | > 100 | > 100 | > 100 | > 100 | > 100 | > 100 | > 100 | 95 | > 100 | 
CC1=C(CO)C2=C(C)C3(CC3)[C@@](C)(O)C(=O)C2=C1 | 0.159 | 2.57 | 0.535 | 0.682 |  | 0.374 | > 81.6 | 1.34 | 0.529 | > 30.4 |  | 1.87 | 1.13 |  | > 100 | 5.81 | > 100 | 0.698 | 0.474 | 0.735
CCOC(=O)/C=C(/C(=O)OCC)n1cnc2c(=O)[nH]c(NC(C)=O)nc21 |  | > 100 | > 100 | > 100 | > 100 | > 100 | > 100 | > 100 | > 100 | > 100 | > 100 | > 100 | > 100 | > 100 | > 100 | > 100 | > 100 | > 100 | > 100 | > 100
CN1C(=O)C2CCCC(=O)N2c2cccnc21 (stereo not drawn) |  | > 100 | > 100 | > 100 | > 100 | > 100 | > 100 | > 100 | > 100 | > 100 | > 100 | > 100 | > 100 | > 100 | > 100 | > 100 | > 100 | > 100 | > 100 | > 100
COc1cccc(C2c3cc4c(cc3OC(C)(N3CCCC3)C2C)OCO4)c1 (stereo not drawn) | 51.9 | > 100 | 92.1 | 5.7 | 35.8 | 14.5 |  | 27.4 | 37.9 | > 100 | > 100 | 45.7 | 37.2 | 73.9 | > 100 | 32.9 | > 100 | 40.2 | > 100 | 22
CC(C)[Si]1(C(C)C)OCC2OC3(CO)C(Oc4nc(=O)ccn43)C2O[Si](C(C)C)(C(C)C)O1 (stereo not drawn) | 18.3 | 35.6 | 35 |  | 28.1 | 32.9 | 23.9 | 23.2 | 33 | 34.7 | 24.8 | 18.6 | 32.1 | 29.6 | 47.1 | 31.4 | 45.5 | 41.6 | 28.9 | 
Cn1c2ccccc2c(=O)c2cccc(C(=O)NC(CS)C(=O)O)c21 (stereo not drawn) |  | > 100 | > 100 |  | > 100 | > 100 | > 100 | > 100 | > 100 | > 100 | > 100 | > 100 | > 100 | > 100 | > 100 | > 100 | > 100 | > 100 | > 100 | > 100
COC1=C(Br)[C@H](O)[C@@]2(C=C1Br)CC(C(=O)NCCCOc1c(Br)cc(C(O)CNC(C)=O)cc1Br)=NO2 (stereo partly drawn) | > 10 | > 10 |  | > 10 | > 10 | > 10 | > 10 | > 10 | > 10 | > 10 | > 10 | > 10 | > 10 | > 10 | 1.77 | 5.12 | > 10 | > 10 | > 10 | > 10
O=C(CC(C(=O)c1ccsc1)c1ccccc1)c1ccccc1 (stereo not drawn) | > 100 | > 100 | > 100 | > 100 | > 100 | > 100 | > 100 |  | > 100 | > 100 | > 100 | > 100 | > 100 | > 100 | > 100 | > 100 | > 100 | > 100 | > 100 | > 100
CC(=O)N(C)CCc1c[nH]c2ccccc12 |  | > 100 | > 100 | > 100 | > 100 | > 100 | > 100 | > 100 | > 100 | > 100 | > 100 | > 100 | > 100 | > 100 | > 100 | > 100 | > 100 | > 100 | > 100 | > 100
Nc1ccn([C@H]2CO[C@@H](CO)[C@@H]2O)c(=O)n1 | > 100 | > 100 | > 100 |  | > 100 | > 100 | > 100 | > 100 | > 100 | > 100 | > 100 | > 100 | > 100 | > 100 | > 100 | > 100 | > 100 | > 100 | > 100 | > 100
CC(=O)NC1=N/C(=C\c2ccc(Cl)cc2)C(=O)N1/C=C1\C(=O)Oc2ccccc2C1=O | > 100 | > 100 | > 100 | > 100 | > 100 | > 100 | > 100 | > 100 | > 100 | > 100 | > 100 | > 100 |  | > 100 | > 100 | > 100 | > 100 | > 100 | > 100 | > 100
COC(=O)NC(C(F)(F)F)(C(F)(F)F)P1(=O)OCCCO1 | 15 | 73.8 |  | 34 | 29.8 | 40.6 | 48.5 | 62.9 | 68.8 | 82.4 | > 100 | > 100 | 97.6 | 55.3 | 69.5 | 46.1 | > 100 | > 100 | > 100 | > 100
O=c1oc2c/c(=C\c3ccc([N+](=O)[O-])cc3)c(=O)c3cccc1c3-2 |  | > 100 | > 100 | 90.5 | > 100 | > 100 | > 100 | > 100 | > 100 | > 100 | > 100 | > 100 | 72.1 | > 100 | > 100 | > 100 | > 100 | > 100 | > 100 | > 100
